Columns and labels:
Tom+ NF1−/− cells [1] = assay: Proliferative activity (CellTrace, cytometry) in floating sphere culture, mutant cells; assay type: cell-based, mouse; settings: for Ratio MIFmean (proliferation): NF1−/− cells, normalised to DMSO
Description: (§1) This study uses a Nf1-KO mouse strain(Prss56Cre/+, R26tdTom/+, NF1fl/fl) developing cutaneous neurofibromas (cNFs) that faithfully recapitulates human disease (Radomska et a., 2019). In this model, simultaneous bi-allelic loss of Nf1 and expression of Tomato fluorescent reporters were targeted into glial-stem like cells at the origin of cNFs. The assay was performed ex vivo using non-adherent cells in which Tomato expressing Nf1−/− and Nf1+/− stem-like cells from skin can be amplified, and their properties further characterized. […] In this system, Nf1−/− cells express high levels of p-ERK (as expected due to the permanent activation of the RAS pathway), proliferate much faster compared to controls and preserve the capacity to reform spheres after dissociation and re-plating.
(§2) This in vitro culture system uses Tomato (Tom)+ stem-like glial cells at the origin of cNFs that can be amplified and propagated for the long periods. Briefly, skin from young mutant (NF1−/−) and control (NF1+/−) mice was dissected, dissociated and cell suspension incubated in the non-adherent condition with the presence of two mitogens, FGF and EGF. In such conditions only stem-like cells survive, proliferate and form compact multicellular floating structures called neurospheres. Since, in addition to the Tom+ glial stem-like cells, skin contains various other types of stem cells (Tom−), the neurospheres are composed of the intermingled Tom+ and Tom− cells. While in the mutant condition, neurospheres contain Tom+, Nf1−/− and Tom−, Nf1+/+ cells, in the Nf1+/− control condition neurospheres are composed of Tom+, Nf1+/− and Tom−, Nf1+/+ cells. In this study we have analysed the drug effect in Tom+ from NF1−/− and NfF1+/− mice.
(§3) In the present study, floating sphere culture of Nf1+/−(Prss56Cre, R26Tom, Nf1flox/+) and Nf1−/− (Prss56Cre, R26Tom, Nf1flox/flox) glial cells isolated from newborn mouse skin were used. Then they are plated and treated and analysed independently. With this intent, Nf1+/− and Nf1−/− spheres were amplified until passage 3 (1 passage corresponds to 7 days of culture). At the end of PO (10 days), cells were split into 4 identical batches (clones 1-4), and were amplified to P3 (FIG. 1).
(§4) At the end of P3, spheres from each clone were dissociated and cells transferred into two 12 well plates. 6 different concentrations (100 μm, 33 μm, 10 μm, 3 μm, 1 μm and 0 μm) of drug were added and cells were incubated for 72 h. An additional 12 well plate containing cells with DMSO (vehicle used for the drug resuspension) was used as a reference for the normalization of results. After 72 h analyses was performed the on the non-fixed cells: proliferative and cell death assay.
(§5) For the analysis of proliferative activity, a cell tracker lipophilic dye (CellTrace Proliferation Kit, Thermo Fishers) was used. The cell tacker was added at the same time as the drugs. Cells were incubated for 72 h and proliferative activity was measured by cytometry analysis using LSR Fortessa X20 (BD Biosciences). This method measures a mean fluorescence intensity (MIF) for each condition. The condition with DMSO was used as a reference.

Tom+ NF1−/− cells [2] = assay: Cell death assay (DAPI, cytometry) in floating sphere culture, mutant cells; assay type: cell-based, mouse; settings: for Ratio dead cells mean / Cell death of NF1−/− cells at highest concentration: 72 h; for Ratio dead cells mean: NF1−/− cells; for Cell death of NF1−/− cells at highest concentration: 100 μM, excluded from analysis
Description: as §1, §2, §3, §4
(§6) At 72 h of culture, cells were labelled for quantification of cell death using DAPI (4′,6-diamidino-2-phenylindole). Labelled cells were analyzed by cytometry with LSR Fortessa X20 (BD Biosciences).

Tom+ NF1+/− cells [3] = assay: Proliferative activity (CellTrace, cytometry) in floating sphere culture, control cells; assay type: cell-based, mouse
Description: This study uses a Nf1-KO mouse strain(Prss56Cre/+, R26tdTom/+, NF1fl/fl) developing cutaneous neurofibromas (cNFs) that faithfully recapitulates human disease (Radomska et a., 2019). In this model, simultaneous bi-allelic loss of Nf1 and expression of Tomato fluorescent reporters were targeted into glial-stem like cells at the origin of cNFs. The assay was performed ex vivo using non-adherent cells in which Tomato expressing Nf1−/− and Nf1+/− stem-like cells from skin can be amplified, and their properties further characterized. […]
This in vitro culture system uses Tomato (Tom)+ stem-like glial cells at the origin of cNFs that can be amplified and propagated for the long periods. […] In this study we have analysed the drug effect in Tom+ from NF1−/− and NfF1+/− mice.
In the present study, floating sphere culture of Nf1+/−(Prss56Cre, R26Tom, Nf1flox/+) and Nf1−/− (Prss56Cre, R26Tom, Nf1flox/flox) glial cells isolated from newborn mouse skin were used. Then they are plated and treated and analysed independently. […]
as §5, with “The cell tacker was added at the same time as the drugs.” left out, “The condition with DMSO was used as a reference.” left out

[4] = system: cNF tumour cells (Tom+) in the skin of Nf1-KO mice; assay: In vivo drug testing in Nf1-KO mice with established cNFs; parameters: species or system mouse; settings: one month
Excerpt: This study uses the same mouse model that was used for in vitro testing, the Prss56Cre/+, R26tdTom/+, NF1f/l mouse (Radomska et a., 2019). This study is a standard experimental design in the field with endpoints being terminal and not longitudinal throughout study.
Prss56Cre/+, R26tdTom/+, NF19/fl herein referred to as Nf1-KO mice develop cNFs after one year of age. However, cNF development occurs at an earlier age after skin injury induced by mice fighting, which is normal mouse behaviour. In this experiment, at least five six-week old Nf1-KO male mice were placed in a cage together, once the mice had sustained a level of skin injury via fighting they were removed from the cage and monitored. At approximately three months of age the mice that had sustained fighting injuries developed several cNFs. As a fluorescent reporter gene is turned on in cells that have Nf1 deleted, cNF development could be monitored via fluorescent imaging of the skin using an epifluorescent microscope (Leica MZ75). After 1-2 months mice that had established, mature cNFs were then enrolled into a drug treatment study. […]
Schwann cells that are Nf1-null also express the fluorescent reporter tomato (Tom+). cNFs are derived from Nf1-null SCs which are Tom+, therefore fluorescence can be used to identify tumours. […]

Tom+ NF1+/− cells [5] = assay: Cell death assay (DAPI, cytometry) in floating sphere culture, control cells; assay type: cell-based, mouse; settings: for Cell death of NF1+/− cells at highest concentration: 100 μM, excluded from analysis
Description: as §1, §2, §3, §4, §6

[6] = incubation with Selumetinib, concentration not given

| Compound | Ratio MIFmean (proliferation) (Tom+ NF1−/− cells [1]; 1 μM, 72 h) | Ratio MIFmean (proliferation) (Tom+ NF1−/− cells [1]; 3 μM, 72 h) | Ratio MIFmean (proliferation) (Tom+ NF1−/− cells [1]; 10 μM, 72 h) | Effect on proliferative activity of NF1−/− cells (Tom+ NF1−/− cells [1]; 33 μM to 1 μM, 72 h, except clone 3) | Ratio MIFmean (proliferation) (Tom+ NF1−/− cells [1]; 33 μM, 72 h) | Ratio dead cells mean (Tom+ NF1−/− cells [2]; 10 μM) | Ratio dead cells mean (Tom+ NF1−/− cells [2]; 33 μM) | Cell death of NF1−/− cells at highest concentration (Tom+ NF1−/− cells [2]) | Cell death of NF1−/− cells at highest concentration (Tom+ NF1−/− cells [2]; listed as nitroxoline) | Effect on proliferation of NF1+/− cells (Tom+ NF1+/− cells [3]; 33 μM to 1 μM, 72 h) | Overall abundance of cNF tumour cells in the skin ([4]; 120 mg/kg once daily) | Tumour size versus vehicle treated mice (fluorescent imaging of Tom+ cells) ([4]; 120 mg/kg oral gavage once a day (5 days on, 2 days off)) | Effect on cell death of NF1+/− cells (Tom+ NF1+/− cells [5]; 33 μM, 72 h) | Cell death of NF1+/− cells at highest concentration (Tom+ NF1+/− cells [5]; 72 h) | Cell death of NF1+/− cells at highest concentration (Tom+ NF1+/− cells [5]; 72 h, listed as nitroxoline) | Effect on cell death of NF1+/− cells (control conditions) (Tom+ NF1+/− cells [5]; lower concentrations (10 μM and below), 72 h) | Effect on proliferative activity of Nf1−/− (mutant) cells (Tom+ NF1−/− cells [1]; [6]) | Effect on death of Nf1−/− (mutant) cells (Tom+ NF1−/− cells [2]; [6]) | Effect on proliferative activity of Nf1+/− cells (Tom+ NF1+/− cells [3]; [6]) | Effect on death of Nf1+/− cells (Tom+ NF1+/− cells [5]; [6]) |
| --- | --- | --- | --- | --- | --- | --- | --- | --- | --- | --- | --- | --- | --- | --- | --- | --- | --- | --- | --- | --- |
| O=[N+]([O-])c1ccc(O)c2ncccc12 [Nitroxoline, 5-nitroquinolin-8-ol] | 0,7+/−0,26 | 0,60+/−0,22 | 0,5+/−0,18 | reduced proliferative activity | 0,39+/−0,11 | 2,04+/−0,63 | 8,86+/−0,66 | massive cell death | massive nonspecific death | not affected | reduces the overall abundance of cNF tumour cells | smaller | without affecting NF1+/− cells | massive cell death | massive nonspecific death | without affecting control conditions |  |  |  |  |
| Cn1cnc2c(F)c(Nc3ccc(Br)cc3Cl)c(C(=O)NOCCO)cc21 [Selumetinib, 6-(4-bromo-2-chloroanilino)-7-fluoro-N-(2-hydroxyethoxy)-3-methylbenzimidazole-5-carboxamide] |  |  |  |  |  |  |  |  |  |  |  |  |  |  |  |  | decreases proliferative activity | promotes death of mutant | without affecting Nf1+/− cells | without affecting Nf1+/− cells |

From patent US20240261276A1, “NITROXOLINE FOR USE IN THE TREATMENT OF CUTANEOUS NEUROFIBROMA” (HEALX LTD, priority 2021, published 2024)
